Test system: Chemotherapeutic agent-caused constipation models of Balb/c mice
Assay: Relieving effect on constipation caused by a chemotherapeutic agent (Examples 202-364)
Format: in vivo
Excerpt: Construction of mouse animal models: Chemotherapeutic agent-caused constipation models of Balb/c mice were constructed according to the administration mode and frequency of the chemotherapeutic agent as shown in Table 4. […] Thus, chemotherapeutic agent-caused constipation models of mice are very good models to mimic constipation caused by the chemotherapeutic agent.
Balb/c mice were fed for 1 week, and then divided into groups. The experiment was divided into a control group, a chemotherapeutic agent group, and a group of the compound as shown in Formula I, each of which comprised 10 mice, to perform the administration experiment, for which the administration dosage, mode, time and frequency were shown in Table 4. The control group: being injected or intragastrically administered with the same solvent as that used in the group of the compound as shown in Formula I (the administration mode and time were shown in Table 4), and then being injected or intragastrically administered with the same solvent as that used in the chemotherapeutic agent group (the administration mode was shown in Table 4); the chemotherapeutic agent group: being injected or intragastrically administered with the same solvent as that used in the group of the compound as shown in Formula I (the administration mode and time was shown in Table 4), and then being injected or intragastrically administered with the chemotherapeutic agent (the type, administration mode and dosage were shown in Table 4); the group of the compound as shown in Formula I: being injected or intragastrically administered with the compound as shown in Formula I (the administration mode and time was shown in Table 4), and then being administered with the chemotherapeutic agent (the administration mode and dosage were shown in Table 4).
The feces reduction rate was calculated with reference to the method of Ji Eun Kim (Lab Anim Res. 2016 December; 32(4): 231-240.). Feces reduction rate (%)=(the control group−the chemotherapeutic agent group or the group of the compound as shown in Formula I)/the control group*100%
It is regarded as effective remission when the feces reduction rate of mice in the group of the compound as shown in Formula I is reduced compared with that in the chemotherapeutic agent group.
The feces amount of mice within 3 hours was observed and recorded every day. At the end of the experiment, the number of mice in the group of the compound as shown in Formula I whose feces reduction rate was lower than that of mice in the chemotherapeutic agent group was recorded. Table 4 lists various animal experiment combinations of chemotherapeutic agents and the compound as shown in Formula I, as well as the corresponding experimental results.

CN1CCN(c2ccc(Nc3ncc4cc5n(c4n3)C3(CCCCC3)CNC5=O)nc2)CC1 [Compound I, Trilaciclib]
Relative remission rate (%) (Example 303, Irinotecan (CPT-11) intraperitoneal injection 260 mg/kg single, compound intravenous injection 150 mg/kg single, 22 h before chemotherapeutic agent, cycle 8 days): 40%
Relative remission rate (%) (Example 304, Irinotecan (CPT-11) intraperitoneal injection 260 mg/kg single, compound intravenous injection 150 mg/kg single, 24 h before chemotherapeutic agent, cycle 8 days): 40%
Relative remission rate (%) (Example 305, Irinotecan (CPT-11) intraperitoneal injection 260 mg/kg single, compound intravenous injection 150 mg/kg single, 48 h before chemotherapeutic agent, cycle 8 days): 0%
Relative remission rate (%) (Example 306, Irinotecan (CPT-11) oral administration 300 mg/kg single, compound intraperitoneal injection 100 mg/kg single, 24 h before chemotherapeutic agent, cycle 10 days): 60%
Relative remission rate (%) (Example 307, Irinotecan (CPT-11) intramuscular injection 260 mg/kg single, compound intramuscular injection 100 mg/kg single, 1 h before chemotherapeutic agent, cycle 7 days): 60%
Relative remission rate (%) (Example 308, Irinotecan (CPT-11) intravenous injection 260 mg/kg single, compound oral administration 100 mg/kg single, 12 h before chemotherapeutic agent, cycle 7 days): 50%
Relative remission rate (%) (Example 309, Fluorouracil 125 (F) and irinotecan 240 (I) mg/kg intravenous injection single, compound intravenous injection 100 mg/kg single, 0.5 h before chemotherapeutic agent, cycle 10 days): 40%
Relative remission rate (%) (Example 310, Fluorouracil 125 (F) and irinotecan 240 (I) mg/kg intravenous injection single, compound intravenous injection 100 mg/kg single, 4 h before chemotherapeutic agent, cycle 10 days): 60%
Relative remission rate (%) (Example 311, Fluorouracil 125 (F) and irinotecan 240 (I) mg/kg intravenous injection single, compound intravenous injection 100 mg/kg single, 8 h before chemotherapeutic agent, cycle 10 days): 60%
Relative remission rate (%) (Example 312, Fluorouracil 125 (F) and irinotecan 240 (I) mg/kg intravenous injection single, compound intravenous injection 100 mg/kg single, 12 h before chemotherapeutic agent, cycle 10 days): 70%
Relative remission rate (%) (Example 313, Fluorouracil 125 (F) and irinotecan 240 (I) mg/kg intravenous injection single, compound intravenous injection 100 mg/kg single, 24 h before chemotherapeutic agent, cycle 10 days): 50%
Relative remission rate (%) (Example 314, Fluorouracil 125 (F) and irinotecan 240 (I) mg/kg intravenous injection single, compound intravenous injection 100 mg/kg single, 48 h before chemotherapeutic agent, cycle 10 days): 0%
Relative remission rate (%) (Example 318, Fluorouracil 125 (F) and irinotecan 240 (I) mg/kg intraperitoneal injection single, compound intraperitoneal injection 100 mg/kg single, 1 h before chemotherapeutic agent, cycle 7 days): 40%
Relative remission rate (%) (Example 319, Fluorouracil 125 (F) and irinotecan 240 (I) mg/kg intraperitoneal injection single, compound intraperitoneal injection 100 mg/kg single, 12 h before chemotherapeutic agent, cycle 7 days): 50%
Relative remission rate (%) (Example 322, Fluorouracil 100 (F) and oxaliplatin 5 (O) and irinotecan 100 (I) mg/kg intraperitoneal injection single, compound intraperitoneal injection 300 mg/kg single, 0.5 h before chemotherapeutic agent, cycle 8 days): 30%
Relative remission rate (%) (Example 323, Fluorouracil 100 (F) and oxaliplatin 5 (O) and irinotecan 100 (I) mg/kg intraperitoneal injection single, compound intraperitoneal injection 300 mg/kg single, 4 h before chemotherapeutic agent, cycle 8 days): 30%
Relative remission rate (%) (Example 324, Fluorouracil 100 (F) and oxaliplatin 5 (O) and irinotecan 100 (I) mg/kg intraperitoneal injection single, compound intraperitoneal injection 300 mg/kg single, 8 h before chemotherapeutic agent, cycle 8 days): 60%
Relative remission rate (%) (Example 325, Fluorouracil 100 (F) and oxaliplatin 5 (O) and irinotecan 100 (I) mg/kg intraperitoneal injection single, compound intraperitoneal injection 300 mg/kg single, 12 h before chemotherapeutic agent, cycle 8 days): 50%
Relative remission rate (%) (Example 326, Fluorouracil 100 (F) and oxaliplatin 5 (O) and irinotecan 100 (I) mg/kg intraperitoneal injection single, compound intraperitoneal injection 300 mg/kg single, 24 h before chemotherapeutic agent, cycle 8 days): 40%
Relative remission rate (%) (Example 327, Fluorouracil 100 (F) and oxaliplatin 5 (O) and irinotecan 100 (I) mg/kg intraperitoneal injection single, compound intraperitoneal injection 300 mg/kg single, 48 h before chemotherapeutic agent, cycle 8 days): 0%
Relative remission rate (%) (Example 328, Fluorouracil 100 (F), oxaliplatin 5 (O), irinotecan 100 (I) and tetrahydrofolic acid 100 (L) mg/kg intravenous injection single, compound intravenous injection 100 mg/kg single, 0.5 h before chemotherapeutic agent, cycle 8 days): 20%
Relative remission rate (%) (Example 329, Fluorouracil 100 (F), oxaliplatin 5 (O), irinotecan 100 (I) and tetrahydrofolic acid 100 (L) mg/kg intravenous injection single, compound intravenous injection 100 mg/kg single, 1 h before chemotherapeutic agent, cycle 8 days): 30%
Relative remission rate (%) (Example 330, Fluorouracil 100 (F), oxaliplatin 5 (O), irinotecan 100 (I) and tetrahydrofolic acid 100 (L) mg/kg intravenous injection single, compound intravenous injection 100 mg/kg single, 2 h before chemotherapeutic agent, cycle 8 days): 30%
Relative remission rate (%) (Example 331, Fluorouracil 100 (F), oxaliplatin 5 (O), irinotecan 100 (I) and tetrahydrofolic acid 100 (L) mg/kg intravenous injection single, compound intravenous injection 100 mg/kg single, 3 h before chemotherapeutic agent, cycle 8 days): 50%
Relative remission rate (%) (Example 332, Fluorouracil 100 (F), oxaliplatin 5 (O), irinotecan 100 (I) and tetrahydrofolic acid 100 (L) mg/kg intravenous injection single, compound intravenous injection 100 mg/kg single, 4 h before chemotherapeutic agent, cycle 8 days): 50%
Relative remission rate (%) (Example 333, Fluorouracil 100 (F), oxaliplatin 5 (O), irinotecan 100 (I) and tetrahydrofolic acid 100 (L) mg/kg intravenous injection single, compound intravenous injection 100 mg/kg single, 6 h before chemotherapeutic agent, cycle 8 days): 40%
Relative remission rate (%) (Example 334, Fluorouracil 100 (F), oxaliplatin 5 (O), irinotecan 100 (I) and tetrahydrofolic acid 100 (L) mg/kg intravenous injection single, compound intravenous injection 100 mg/kg single, 8 h before chemotherapeutic agent, cycle 8 days): 60%
